{
  "source": "paper PMC12544700",
  "about": "“Identification of a Small Secretoneurin Derivative That Inhibits CaMKIIδ Activity” (Journal of Cellular and Molecular Medicine, 2025)",
  "key": {"recombinant CaM": {"biological_target": "T1, recombinant CaM (Homo sapiens, UniProt P0DP23)", "T1 construct": "purchased Sigma Merck C4874", "experiment": "Calmodulin pull-down with peptides synthesised on cellulose membrane", "type": "binding", "conditions": "peptide on cellulose membrane; 1 μg recombinant CaM, 1 mM CaCl2, overnight 4°C; immunoblot; Figure 3B", "description": "To test for calmodulin (CaM) binding, recombinant CaM was pulled down after incubation with SN‐db‐short or a peptide representing the CaM binding site in CaMKII ([…], positive control). SN‐db‐short and the CaM‐binding peptide were synthesised in triplicates onto a cellulose membrane by a Multipep automated peptide synthesiser (CEM Corporation, Matthews, NC, USA). The specific spots of the membrane corresponding to SN‐db‐short or the positive control peptide were cut and placed into separate tubes. The membrane pieces were first rehydrated in 100% methanol and subsequently incubated with 1 μg of recombinant CaM (C4874, Sigma Merck) in CaMKII binding buffer supplemented with CaCl2 (50 mM Hepes, 150 mM NaCl, 15 mM MgCl2, 1 mM CaCl2, 0.1% Triton X‐100, 1% BSA) overnight at 4°C with rotation. […]\nLysates and immunoprecipitates were separated on 12% or 4%–15% Criterion TGX precast gels (5671044 and 5671084, Biorad, Hercules, CA, USA), blotted onto PVDF membranes (1704157 by Biorad or 03010040001 by Sigma Merck) and reversibly stained with Revert 700 Total Protein Stain (Li‐COR Biosciences, Lincoln, NE, USA). […] Blots were developed using ECL (RPN2236, GE Healthcare, Chicago, IL, USA) after four washing steps of 10 min in TBS‐t and the chemiluminescence signals were detected by Azure Biosystems 600 (Dublin, CA, USA). […] ImageJ [13] was used to quantify the blots."}, "adult rat cardiomyocytes": {"test_system": "adult rat cardiomyocytes", "experiment": "Caffeine-elicited Ca2+ transients (Ca2+ extrusion)", "type": "cell-based", "conditions": "10 mM caffeine; whole‐cell photometry; Figure S3, n = 10–18, 4–6 rats", "description": "Male Wistar rats (Janvier, France) weighing ~300 g were sedated in an anaesthesia chamber by inhalation of 5% isoflurane and 95% O2. The heart was excised under deep surgical anaesthesia, cannulated, and then retrogradely perfused through the aorta on a modified Langendorff setup with cell isolation solution containing (in mM, pH adjusted to 7.4, 37°C): NaCl 130, Hepes 25, D‐glucose 22, KCl 5.4, MgCl2 0.5, NaH2PO4 0.4, and a flow rate of 4 mL/min. After the heart was cleaned of blood, collagenase type II (2 mg/mL, Worthington Biochemical Corp, Lakewood, NJ, USA) was added to the perfusate, and the hearts digested for ~10 min. Following digestion, hearts were cut down, and the left ventricle dissected into pieces, which were transferred into 10 mL cell isolation solution with 250 μL BSA (40 mg/mL) and ~0.2 mg Deoxyribonuclease I (Worthington Biochemical Corporation, Lakewood, NJ, USA). […]\nTo estimate SR Ca^2+ content, Ca^2+ release was triggered by rapid exposure to 10 mM caffeine (Sigma) and recorded by whole‐cell photometry (Photon Technology International, Monmouth Junction, NJ, USA) with a 40× oil objective. Cells were first stimulated at 1 Hz in Hepes‐Tyrode (HT, see the paragraph above) solution containing CaCl2 until at least three stable Ca^2+ transients were recorded. […]"}},
  "note": "Peptide text beside a SMILES is read from it. * marks the point of attachment. Biotin = O=C1N[C@H]2[C@H](CS[C@H]2CCCCC(=O)*)N1; Ahx = NCCCCCC(=O)O",
  "data": [
    {"smiles": "CC(C)C[C@H](NC(=O)[C@H](CCC(=O)O)NC(=O)[C@H](CCC(N)=O)NC(=O)[C@H](Cc1ccccc1)NC(=O)[C@H](Cc1ccccc1)NC(=O)[C@H](CO)NC(=O)[C@H](CCC(=O)O)NC(=O)[C@H](Cc1ccccc1)NC(=O)[C@@H](NC(=O)[C@H](C)NC(=O)[C@H](CC(C)C)NC(=O)[C@H](CO)NC(=O)[C@H](CCC(N)=O)NC(=O)[C@@H]1CCCN1C(=O)[C@@H](NC(=O)[C@H](Cc1ccc(O)cc1)NC(=O)[C@H](CCC(N)=O)NC(=O)[C@H](CCC(=O)O)NC(=O)CCCCCNC(=O)CCCC[C@@H]1SC[C@@H]2NC(=O)N[C@@H]21)[C@@H](C)O)[C@@H](C)O)C(=O)NCC(=O)N[C@@H](CCCCN)C(=O)O", "note": "[SN‐db‐short] ({Biotin-Ahx}-EQYTPQSLATFESFFQELGK-OH; N-terminus and C-terminus assumed)", "values": [
      {"measurement": "CaM binding (pull-down)", "setting": "recombinant CaM", "result": "no CaM was detected"},
      {"measurement": "Rate of Ca2+ extrusion (Na+‐Ca2+ exchanger and plasma membrane Ca2+ ATPase activity)", "setting": "adult rat cardiomyocytes", "result": "no change"}
    ]}
  ]
}
